Reference: article PMC6664433 (Cancer discovery, 2019)

Assays:
H1975 cells [1] = test: Western blotting of EGFR, AKT, ERK1/2 phosphorylation; details: 4 hours, compared to osimertinib
TIE1 = TIE1 (Homo sapiens, UniProt P35590); test: KINOMEscan kinome selectivity profiling; format: binding; details: 10µM
H3255GR cells [2] = test: IncuCyte long-term confluency assay; format: cell-based, human; details: osimertinib 1μM, JBJ-04-125-02 10μM or both, 2 weeks of treatment
panel of 468 kinases = test: KINOMEscan kinome selectivity profiling; format: binding, human; details: 10µM, 35% cut-off
[3] = test system: wild-type EGFR Ba/F3 cells; test: Ba/F3 cell proliferation; format: cell-based, murine; details: 72 hours
TIE2 = TIE2 (Homo sapiens, UniProt Q02763); test: KINOMEscan kinome selectivity profiling; format: binding; details: 10µM
[4] = test system: Ba/F3 cells containing the L858R/C797S mutation; test: Ba/F3 cell proliferation; format: cell-based, murine; details: compared to gefitinib
[5] = test system: H1975 xenograft mouse model; details: for tumor volume change at day 18: osimertinib 2.5mg/kg, JBJ-04-125-02 100mg/kg, or both
H3255GR cells [6] = test: Cell viability assay; details: 72 hours
[7] = test system: EGFR L858R/T790M/C797S genetically engineered mice; test: Pharmacodynamic study in GEM mice; format: in vivo; details: oral gavage once daily, 3 doses
[8] = test system: Ba/F3 cells harboring EGFR Del_19 variants; test: Ba/F3 cell proliferation; format: cell-based, murine; details: 72 hours
MAP4K5 = MAP4K5 (Homo sapiens, UniProt Q9Y4K4); test: KINOMEscan kinome selectivity profiling; format: binding; details: 10µM
L858R/T790M Ba/F3 cells = test: ENU mutagenesis resistant colony assay; details: after ENU; 1μM osimertinib, 10μM JBJ-04-125-02, or combination; of 300 colonies
H3255GR cells [9] = test: IncuCyte Caspase-3/7 apoptosis assay; format: cell-based, human; details: 0.1μM osimertinib, 10μM allosteric inhibitor, or both; 72 hours
Pharmacokinetic study = format: in vivo
parental Ba/F3 cells = test: Ba/F3 cell proliferation; format: cell-based, murine; details: 72 hours
[10] = test system: Del_19-containing EGFR mutants; test: KINOMEscan kinome selectivity profiling; format: binding, human; details: 10µM
[11] = test system: EGFR L858R/T790M/C797S genetically engineered mice; test: Efficacy study in GEM mice; format: in vivo
[12] = test system: Ba/F3 cell lines stably transfected with EGFR L858R, L858R/T790M or L858R/T790M/C797S; test: Ba/F3 cell proliferation; format: cell-based, murine; details: single agent, 72 hours
H1975 cells [13] = test: Cell viability assay; details: 72 hours
[14] = test system: H1975 xenograft mouse model; test: Pharmacodynamic study in H1975 xenograft; details: 3 doses; JBJ-04-125-02 100mg/kg, osimertinib 25mg/kg
[15] = test system: EGFR-mutant NSCLC patients; details: cited from earlier work; for PFS: osimertinib vs comparator arm gefitinib or erlotinib; for median PFS: patients with an L858R mutation, comparator arm gefitinib or erlotinib
L858R/T790M EGFR = L858R/T790M EGFR (Homo sapiens, UniProt P00533, L858R/T790M); test: HTRF-based EGFR biochemical assay; details: read-out: IC50 (biochemical potency); enzyme 20pM, 100µM ATP
[16] = test system: patients with EGFR T790M-mediated drug resistance; details: cited from earlier work
[17] = test system: patients with advanced EGFR mutant NSCLC; details: initial therapy; cited from earlier work
EGFR-mutant models = details: without cetuximab; cited from earlier work
EGFR = test: Biotinylated EAI045 pull-down assay; format: binding; details: following osimertinib treatment

Q: What does the source list for `O=C(Nc1nccs1)C(c1cc(F)ccc1O)N1Cc2ccc(-c3ccc(N4CCNCC4)cc3)cc2C1=O` (stereo not drawn) [JBJ-04-125-02]?
A: EGFR and ERK1/2 phosphorylation (H1975 cells [1]): downregulate EGFR and ERK1/2 phosphorylation more potently than osimertinib; % control (TIE1): 29 % control; confluency at 2 weeks (H3255GR cells [2]): reached full confluency; S-Score (35) (panel of 468 kinases): 0.02; inhibition of growth [3]: did not inhibit the growth; % control (TIE2): 33 % control; inhibition of cell proliferation [4]: not as potent as gefitinib in inhibiting cell proliferation; tumor volume change at day 18 [5]: minimal reduction in tumor volume; tumor growth ([5]; osimertinib 25mg/kg, JBJ-04-125-02 100mg/kg, 35 days): tumor stasis and occasional shrinkage in some mice; sensitivity of cell proliferation (H3255GR cells [6]): resistant; phosphorylation of EGFR, AKT and ERK1/2 in tumors ([7]; 50mg/kg and 100mg/kg): effectively inhibited phosphorylation of EGFR, AKT and ERK1/2; sensitivity of cell proliferation [8]: resistant; % control (MAP4K5): 9.5 % control; resistant colonies (L858R/T790M Ba/F3 cells): 72%; apoptosis (Caspase-3/7 activity) (H3255GR cells [9]): no more effective than DMSO; area under the curve (AUClast) (Pharmacokinetic study; 3 mg/kg intravenous (IV) dose): 728577 ng·min/mL; half-life (Pharmacokinetic study; 3 mg/kg intravenous (IV) dose): 3 h; average maximal plasma concentration (Pharmacokinetic study; 20mg/kg oral dose): 1.1 µM; oral bioavailability (Pharmacokinetic study; 20mg/kg oral dose): 3%; inhibition of growth (parental Ba/F3 cells): did not inhibit the growth; binding affinity [10]: lacks binding affinity; weight loss or signs of toxicity ([11]; 50mg/kg long-term treatment): not associated with weight loss or overt signs of toxicity; change in tumor volume ([11]; 50mg/kg, within 4 weeks, sustained for 15 weeks): marked tumor regressions; inhibition of cell proliferation [12]: could inhibit cell proliferation as a single agent; concentration inhibiting cell proliferation (H1975 cells [13]): low nanomolar concentrations; EGFR, AKT and ERK1/2 phosphorylation in tumors [14]: reduction in EGFR phosphorylation but only subtle changes in AKT and ERK1/2 phosphorylation

Q: Which results are given for `C#Cc1cccc(Nc2ncnc3cc(OCCOC)c(OCCOC)cc23)c1` [erlotinib]?
A: PFS [15]: 10.2 months; median PFS [15]: 9.5 months

Q: With `O=C(Nc1nccs1)C(c1ccccc1)N1Cc2ccc(-c3ccc4[nH]ccc4c3)cc2C1=O` (stereo not drawn) [JBJ-02-112-05] as the compound, how does the “phosphorylation of EGFR and downstream signaling in tumors” value ([7]; 100mg/kg) read?
A: also inhibited phosphorylation of EGFR and downstream signaling pathways although not as robustly as JBJ-04-125-02

Q: What about the IC50 (L858R/T790M EGFR) of the same compound?
A: 15 nM

Q: What about the “change in tumor volume” value ([11]; 100mg/kg) of the same compound?
A: ineffective

Q: Which “confluency at 2 weeks” value (H3255GR cells [2]) does the source give for `C=CC(=O)Nc1cc(Nc2nccc(-c3cn(C)c4ccccc34)n2)c(OC)cc1N(C)CCN(C)C` [osimertinib, reference compound] here?
A: 24%

Q: What about the PFS [15] of the same compound?
A: 18.9 months

Q: And the “median PFS” value [15]?
A: 14.4 months

Q: And the “tumor volume change at day 18” value [5]?
A: minimal reduction in tumor volume

Q: And the tumor regression ([5]; osimertinib 25mg/kg alone or with JBJ-04-125-02 100mg/kg, 28 days)?
A: ~100%

Q: And the “sensitivity of cell proliferation” value (H3255GR cells [6])?
A: sensitive

Q: And the “apoptosis (Caspase-3/7 activity)” value (H3255GR cells [9])?
A: time-dependent increase in apoptosis

Q: What about the “progression free survivals (PFS)” value [16] of the same compound?
A: 9.9–12.3 months

Q: What about the “response rate (RR)” value [16] of the same compound?
A: 62–71%

Q: And the PFS [17]?
A: 19.3 months

Q: And the RR [17]?
A: 77%

Q: And the “EGFR, AKT and ERK1/2 phosphorylation in tumors” value [14]?
A: complete inhibition of EGFR phosphorylation

Q: Which single agent efficacy (EGFR-mutant models) does the source give for `O=C(Nc1nccs1)C(c1cc(F)ccc1O)N1Cc2ccccc2C1=O` (stereo not drawn) [EAI045] here?
A: not effective as a single agent

Q: What about the co-binding with osimertinib (EGFR) of the same compound?
A: did indeed co-bind with osimertinib and increase EGFR precipitation
